The IC50 is the concentration that gives 50% inhibition.

In one assay the target is T1, SYK kinase (Homo sapiens, UniProt P43405).
T1 construct: purchased Invitrogen, Carlsbad
In words: SYK assay (OMNIA Kinase Assay, Invitrogen). The format is biochemical. To be noted: apparent Ki calculated from the IC50 using the Cheng-Prusoff equation; 1 mM ATP, 10 μM Peptide Substrate; read-out: SYK Activities: Ki. The procedure, abridged: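 Reaction velocities were measured from kinetic fluorescence reads (360/485 nm, every 30 s over 30 min) of Mg2+-chelated SOX signal. Conditions were 1 mM ATP, 10 μM Omnia Tyr 7 peptide and 0.2 mM DTT at 30° C. Sigmoidal IC50 fits were converted to apparent Ki using Cheng-Prusoff.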

The target in a further assay is MYLK (Homo sapiens, UniProt Q15746). The assay can be described thus: MYLK assay (LanthaScreen Eu Kinase Binding Assay). As to conditions: 5 nM MYLK, 30 nM tracer 236, RT 1 h; read-out: MYLK Activites: IC50. Here is the method: In the assay LanthaScreen™ Eu Kinase Binding Assay by Invitrogen Corporation (Carlsbad) the effect of invention of a compound on the phosphorylation is determined by measurement of fluorescence intensity emission ratio based on the binding and displacement of a proprietary, Alexa Fluor® 647-labeled, ATP-competitive kinase inhibitor scaffold (kinase tracer) to the kinase of interest as described above.
To the wells of an 384 well small volume plate (Greiner, Frickenhausen) are added (i) the compound under test in 5% DMSO/distilled water (5 μl), (ii) 5 μl of the kinase antibody mixture resulting in a final concentration 5 nM MYLK, 2 nM EU-Anti-GST antibody in 1× kinase buffer A. The reaction was started with addition of (iii) 5 μl resulting in a final concentration of 30 nM tracer 236. The assay plate was incubated at RT for 1 h and fluorescence intensitiy readings were collected using a TECAN M1000 at two wavelengthes of λex 340/λem 615 nm and λex 340/λem 665 nm with a delay time of 100 μs and an integration time of 200 μs after 60 minutes. The emission ratio was calculated by division of the acceptor/tracer emission ([…]) by the antibody/donor emission ([…]). The inhibitor concentration was plotted versus the emission ratio to determine the IC50 using XLFit 5.0 (IDBS, Guildford) to fit to a sigmoidal dose response curve with a variable slope.
On the technique in general: Time-resolved FRET reads energy transfer from a long-lived donor to a nearby acceptor.

For another assay, the target named is LRRK2 (Homo sapiens, UniProt Q5S007). In words: LRRK2 assay (LanthaScreen Eu Kinase Binding Assay). To be noted: 5 nM LRRK2, 10 nM tracer 236, RT 1 h; read-out: LRRK2 Activites: IC50. The text has this:
Binding of the tracer to the kinase is detected using a europium-labeled anti-tag antibody, which binds to the kinase of interest. […] Binding of an inhibitor to the kinase competes for binding with the tracer, resulting in a loss of FRET. The fluorescence intensity ratio is directly proportional to the amount of peptide phosphorylation.
The inhibitor concentration was plotted versus the emission ratio to determine the IC50 using XLFit 5.0 (IDBS, Guildford) to fit to a sigmoidal dose response curve with a variable slope.

Chain of LRRK2 (Q5S007 970-2527 limits assumed): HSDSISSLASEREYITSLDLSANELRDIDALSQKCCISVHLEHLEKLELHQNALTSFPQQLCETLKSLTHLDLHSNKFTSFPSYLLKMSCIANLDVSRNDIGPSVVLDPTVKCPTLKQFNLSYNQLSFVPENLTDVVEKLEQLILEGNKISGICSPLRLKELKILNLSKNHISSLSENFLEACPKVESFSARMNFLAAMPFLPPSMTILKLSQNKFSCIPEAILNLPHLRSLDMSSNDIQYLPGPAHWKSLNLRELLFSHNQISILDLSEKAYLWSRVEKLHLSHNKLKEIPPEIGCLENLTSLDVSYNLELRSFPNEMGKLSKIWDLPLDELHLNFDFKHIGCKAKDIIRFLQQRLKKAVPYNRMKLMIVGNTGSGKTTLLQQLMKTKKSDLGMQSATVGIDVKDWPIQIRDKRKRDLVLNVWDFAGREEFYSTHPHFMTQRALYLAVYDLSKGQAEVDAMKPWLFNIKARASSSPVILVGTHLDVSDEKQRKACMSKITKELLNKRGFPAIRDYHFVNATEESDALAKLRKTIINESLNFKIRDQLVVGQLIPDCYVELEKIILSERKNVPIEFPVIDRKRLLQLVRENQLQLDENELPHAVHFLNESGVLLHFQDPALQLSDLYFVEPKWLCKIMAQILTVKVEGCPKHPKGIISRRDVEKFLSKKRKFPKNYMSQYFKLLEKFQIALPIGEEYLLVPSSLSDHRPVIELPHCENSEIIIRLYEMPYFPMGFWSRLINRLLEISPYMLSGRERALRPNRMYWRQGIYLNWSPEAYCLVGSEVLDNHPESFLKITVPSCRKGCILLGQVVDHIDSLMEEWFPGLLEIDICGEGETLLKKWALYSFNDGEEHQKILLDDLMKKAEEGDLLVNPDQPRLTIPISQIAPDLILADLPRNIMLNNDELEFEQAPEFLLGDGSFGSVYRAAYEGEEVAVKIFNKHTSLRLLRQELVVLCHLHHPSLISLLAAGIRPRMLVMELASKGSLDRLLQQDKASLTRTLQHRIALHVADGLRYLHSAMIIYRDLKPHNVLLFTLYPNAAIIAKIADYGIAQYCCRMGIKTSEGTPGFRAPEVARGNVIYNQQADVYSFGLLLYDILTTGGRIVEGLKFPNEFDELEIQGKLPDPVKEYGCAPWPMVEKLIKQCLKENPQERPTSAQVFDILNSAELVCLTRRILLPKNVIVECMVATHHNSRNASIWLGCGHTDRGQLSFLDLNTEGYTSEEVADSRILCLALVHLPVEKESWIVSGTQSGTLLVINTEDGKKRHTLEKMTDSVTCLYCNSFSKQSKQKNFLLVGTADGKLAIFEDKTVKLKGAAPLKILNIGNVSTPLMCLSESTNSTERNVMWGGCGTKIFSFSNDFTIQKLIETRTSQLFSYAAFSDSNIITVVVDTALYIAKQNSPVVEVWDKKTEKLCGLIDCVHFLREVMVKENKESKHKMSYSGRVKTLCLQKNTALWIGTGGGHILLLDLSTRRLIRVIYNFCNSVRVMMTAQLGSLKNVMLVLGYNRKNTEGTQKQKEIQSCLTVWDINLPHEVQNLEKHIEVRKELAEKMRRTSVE
Chain of MYLK (Q15746 whole entry): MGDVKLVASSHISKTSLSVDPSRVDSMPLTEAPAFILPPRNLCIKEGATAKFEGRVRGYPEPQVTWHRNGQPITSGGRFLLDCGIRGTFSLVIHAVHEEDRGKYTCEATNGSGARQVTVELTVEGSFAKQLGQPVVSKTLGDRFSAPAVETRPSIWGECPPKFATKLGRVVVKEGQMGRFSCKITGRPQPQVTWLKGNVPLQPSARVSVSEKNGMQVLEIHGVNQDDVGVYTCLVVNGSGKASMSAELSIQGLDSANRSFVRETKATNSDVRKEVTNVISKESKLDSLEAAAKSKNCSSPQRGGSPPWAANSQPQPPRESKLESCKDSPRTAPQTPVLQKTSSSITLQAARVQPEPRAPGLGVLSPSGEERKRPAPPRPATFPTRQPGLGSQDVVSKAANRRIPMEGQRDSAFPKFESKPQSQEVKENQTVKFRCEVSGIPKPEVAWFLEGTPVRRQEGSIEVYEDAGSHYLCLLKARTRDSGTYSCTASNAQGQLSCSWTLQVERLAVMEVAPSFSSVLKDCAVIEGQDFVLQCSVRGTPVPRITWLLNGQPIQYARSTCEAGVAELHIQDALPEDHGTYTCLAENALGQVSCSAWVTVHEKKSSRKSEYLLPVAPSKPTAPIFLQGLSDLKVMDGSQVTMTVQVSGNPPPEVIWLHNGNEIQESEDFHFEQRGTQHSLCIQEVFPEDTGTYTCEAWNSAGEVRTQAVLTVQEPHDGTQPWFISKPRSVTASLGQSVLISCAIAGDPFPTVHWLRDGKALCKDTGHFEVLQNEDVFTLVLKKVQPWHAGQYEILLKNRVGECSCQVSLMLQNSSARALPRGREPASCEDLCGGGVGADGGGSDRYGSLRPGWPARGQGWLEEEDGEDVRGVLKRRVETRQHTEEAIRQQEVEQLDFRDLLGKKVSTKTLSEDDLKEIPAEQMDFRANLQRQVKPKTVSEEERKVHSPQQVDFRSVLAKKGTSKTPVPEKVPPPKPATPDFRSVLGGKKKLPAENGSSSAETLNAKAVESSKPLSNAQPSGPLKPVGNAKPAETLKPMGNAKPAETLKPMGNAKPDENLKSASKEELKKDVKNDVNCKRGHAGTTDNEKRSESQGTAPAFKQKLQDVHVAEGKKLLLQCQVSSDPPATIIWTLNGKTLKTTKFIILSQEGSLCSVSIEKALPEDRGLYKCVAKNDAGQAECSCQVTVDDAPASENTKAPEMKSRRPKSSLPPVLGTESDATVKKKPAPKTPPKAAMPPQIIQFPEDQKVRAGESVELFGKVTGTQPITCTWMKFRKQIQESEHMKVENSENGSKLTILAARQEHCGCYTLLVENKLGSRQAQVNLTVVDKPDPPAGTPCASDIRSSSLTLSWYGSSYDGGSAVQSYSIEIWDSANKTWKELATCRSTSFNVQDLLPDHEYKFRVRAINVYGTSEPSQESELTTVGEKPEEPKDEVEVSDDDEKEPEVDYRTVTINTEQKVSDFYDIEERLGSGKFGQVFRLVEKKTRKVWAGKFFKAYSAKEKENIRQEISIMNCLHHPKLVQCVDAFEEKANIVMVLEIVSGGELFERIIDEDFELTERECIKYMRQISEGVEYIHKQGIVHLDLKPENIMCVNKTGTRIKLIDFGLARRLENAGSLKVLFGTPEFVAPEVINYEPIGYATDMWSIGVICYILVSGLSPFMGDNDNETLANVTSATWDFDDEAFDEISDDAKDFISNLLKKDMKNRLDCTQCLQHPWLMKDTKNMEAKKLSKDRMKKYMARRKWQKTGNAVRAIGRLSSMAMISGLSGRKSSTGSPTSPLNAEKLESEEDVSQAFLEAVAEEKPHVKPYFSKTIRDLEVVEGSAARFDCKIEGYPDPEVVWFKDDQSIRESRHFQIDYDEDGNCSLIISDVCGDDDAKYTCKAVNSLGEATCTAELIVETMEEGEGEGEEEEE

For the compound `Cc1cc(Nc2nc3ccc(Br)cc3c3c[nH]nc23)cc2cn[nH]c12` [Example #41, (8-Bromo-2H-pyrazolo[3,4-c]quinolin-4-yl)-(7-methyl-1H-indazol-5-yl)-amine], on SYK kinase, the Ki was 10 to 100 nM. The IC50 on MYLK was < 5000 nM.

Turning to `O=C1COc2ccc(Nc3nc4ccc(Br)cc4c4c[nH]nc34)cc2N1` [Example #116, 6-(8-Bromo-2H-pyrazolo[3,4-c]quinolin-4-ylamino)-4H-benzo[1,4]oxazin-3-one], the IC50 at MYLK is < 5000 nM.

For the compound `COc1cccc2c1nc(Nc1ccc3c(c1)NC(=O)CO3)c1n[nH]cc12` [Example #250, 6-((6-methoxy-2H-pyrazolo[3,4-c]quinolin-4-yl)amino)-2H-benzo[b][1,4]oxazin-3(4H)-one], the Ki at SYK kinase was 10 to 100 nM. Moreover, on LRRK2, the IC50 fell in the range of 100 to 1000 nM.

As to `COc1ccc2c(c1)nc(Nc1ccc3[nH]ncc3c1)c1n[nH]cc12` [Example #256, (1H-Indazol-5-yl)-(7-methoxy-2H-pyrazolo[3,4-c]quinolin-4-yl)-amine], at SYK kinase, the Ki was 10 to 100 nM. Moreover, the IC50 on LRRK2 lay within 100 to 1000 nM.

For the compound `COc1cccc2c1nc(Nc1ccc(C)cc1)c1n[nH]cc12` [Example #274, (6-Methoxy-2H-pyrazolo[3,4-c]quinolin-4-yl)-p-tolyl-amine], the Ki on SYK kinase was 10 to 100 nM. Besides, the IC50 at LRRK2 lay within 100 to 1000 nM.

For `COc1ccc2nc(Nc3ccc(OCC(=O)O)c(OC)c3)c3n[nH]cc3c2c1` [Example #279, 2-(2-methoxy-4-((8-methoxy-2H-pyrazolo[3,4-c]quinolin-4-yl)amino)phenoxy)acetic-acid], the Ki on SYK kinase is 100 to 1000 nM. Besides, the IC50 at LRRK2 lay in the range of 100 to 1000 nM.

Take `COc1ccc2nc(Nc3ccc(CC(=O)O)cc3)c3n[nH]cc3c2c1` [Example #285, 2-(4-((8-methoxy-2H-pyrazolo[3,4-c]quinolin-4-yl)amino)phenyl)acetic acid]: at SYK kinase, the Ki was 100 to 1000 nM. Also, the IC50 at LRRK2 fell in the range of 100 to 1000 nM.

Take `COc1ccc2nc(Nc3ccc(N4CCSCC4)cc3)c3[nH]ncc3c2c1` [Example #293, 8-methoxy-N-(4-thiomorpholinophenyl)-2H-pyrazolo[3,4-c]quinolin-4-amine]: the Ki on SYK kinase was < 10 nM. Moreover, the 50% inhibitory concentration (IC50) on LRRK2 is 10 to 100 nM.

`COc1ccc2nc(Nc3ccc(C(=O)N4CCC4)cc3)c3n[nH]cc3c2c1` [Example #302, azetidin-1-yl(4-((8-methoxy-2H-pyrazolo[3,4-c]quinolin-4-yl)amino)phenyl)methanone]: the Ki on SYK kinase is 10 to 100 nM. The IC50 at LRRK2 was < 10 nM.

For the compound `COc1ccc2nc(Nc3ccc(F)cc3)c3n[nH]cc3c2c1` [Example #310, N-(4-fluorophenyl)-8-methoxy-2H-pyrazolo[3,4-c]quinolin-4-amine], the Ki on SYK kinase was 10 to 100 nM. The IC50 at LRRK2 lay in the range of 100 to 1000 nM.

Take `COc1ccc2nc(Nc3ccc(NC(=O)C(F)(F)F)cc3)c3n[nH]cc3c2c1` [Example #312, 2,2,2-trifluoro-N-(4-((8-methoxy-2H-pyrazolo[3,4-c]quinolin-4-yl)amino)phenyl)acetamide]: the Ki at SYK kinase was 100 to 1000 nM. Further, the IC50 on LRRK2 was in the range of 100 to 1000 nM.

For the compound `COc1ccc2nc(Nc3ccc4c(c3)N=C(NCCCO)CO4)c3n[nH]cc3c2c1` [Example #313, 3-((6-((8-methoxy-2H-pyrazolo[3,4-c]quinolin-4-yl)amino)-2H-benzo[b][1,4]oxazin-3-yl)amino)propan-1-ol], the Ki on SYK kinase is 10 to 100 nM. Besides, at LRRK2, the IC50 is 10 to 100 nM.

In the case of `COc1ccc2nc(Nc3ccc4c(c3)N=C(NCCc3ccccc3)CO4)c3n[nH]cc3c2c1` [Example #314, N6-(8-methoxy-2H-pyrazolo[3,4-c]quinolin-4-yl)-N3-phenethyl-2H-benzo[b][1,4]oxazine-3,6-diamine], the Ki at SYK kinase is 10 to 100 nM. Besides, the IC50 on LRRK2 fell in the range of 10 to 100 nM.

`COc1ccc2nc(Nc3cc(F)c(F)c(F)c3)c3n[nH]cc3c2c1` [Example #317, 8-methoxy-N-(3,4,5-trifluorophenyl)-2H-pyrazolo[3,4-c]quinolin-4-amine]: the Ki on SYK kinase is 10 to 100 nM. Further, the IC50 at LRRK2 was in the range of 100 to 1000 nM.

As to `COc1ccc2nc(Nc3ccc(N4CCOCC4)c(OC)c3)c3n[nH]cc3c2c1` [Example #319, 8-methoxy-N-(3-methoxy-4-morpholinophenyl)-2H-pyrazolo[3,4-c]quinolin-4-amine], the Ki at SYK kinase was 10 to 100 nM. Also, at LRRK2, the IC50 lay in the range of 100 to 1000 nM.

Consider `COc1ccc2nc(Nc3ccc(C(O)(C(F)(F)F)C(F)(F)F)cc3)c3n[nH]cc3c2c1` [Example #321, 1,1,1,3,3,3-hexafluoro-2-(4-((8-methoxy-2H-pyrazolo[3,4-c]quinolin-4-yl)amino)phenyl)propan-2-ol], for which the Ki at SYK kinase is 100 to 1000 nM. Further, at LRRK2, the IC50 lay within 100 to 1000 nM.

As for `O=C(c1ccc(Nc2nc3ccc(F)cc3c3cn[nH]c23)cc1)N1CCCC1` [Example #322, (4-((8-fluoro-3H-pyrazolo[3,4-c]quinolin-4-yl)amino)phenyl) (pyrrolidin-1-yl)methanone], the IC50 at MYLK was < 5000 nM.

On to `Fc1ccc2nc(Nc3ccc(N4CCOCC4)cc3)c3[nH]ncc3c2c1` [Example #325, 8-fluoro-N-(4-morpholinophenyl)-3H-pyrazolo[3,4-c]quinolin-4-amine], for which the Ki on SYK kinase is 10 to 100 nM. The IC50 on LRRK2 is 100 to 1000 nM.

For the compound `COc1ccc2nc(Nc3ccc(OC(F)F)c(OC)c3)c3n[nH]cc3c2c1` [Example #328, N-(4-(difluoromethoxy)-3-methoxyphenyl)-8-methoxy-2H-pyrazolo[3,4-c]quinolin-4-amine], the Ki on SYK kinase was 100 to 1000 nM. Further, the IC50 on LRRK2 was 100 to 1000 nM.

Turning to `COc1ccc2nc(Nc3ccc(S(=O)(=O)N(C)C)cc3)c3n[nH]cc3c2c1` [Example #343, 4-((8-methoxy-2H-pyrazolo[3,4-c]quinolin-4-yl)amino)-N,N-dimethylbenzenesulfonamide], the Ki on SYK kinase is 10 to 100 nM. Moreover, the IC50 at LRRK2 was in the range of 100 to 1000 nM.

Regarding `COc1ccc2nc(Nc3cccc(S(=O)(=O)NC4CC4)c3)c3n[nH]cc3c2c1` [Example #344, N-cyclopropyl-3-((8-methoxy-2H-pyrazolo[3,4-c]quinolin-4-yl)amino)benzenesulfonamide], the Ki on SYK kinase was 10 to 100 nM. In addition, the IC50 on LRRK2 was in the range of 10 to 100 nM.

Regarding `COc1ccc2nc(Nc3cccc(S(=O)(=O)CCO)c3)c3n[nH]cc3c2c1` [Example #351, 2-((3-((8-methoxy-2H-pyrazolo[3,4-c]quinolin-4-yl)amino)phenyl)sulfonyl)ethan-1-ol], the Ki on SYK kinase was 100 to 1000 nM. For the same compound, on LRRK2, the IC50 was in the range of 100 to 1000 nM.

Take `Ic1ccc2nc(Nc3ccc(N4CCOCC4)cc3)c3[nH]ncc3c2c1` [Example #355, 8-iodo-N-(4-morpholinophenyl)-3H-pyrazolo[3,4-c]quinolin-4-amine]: the Ki on SYK kinase is 10 to 100 nM. Further, the IC50 at LRRK2 lay in the range of 100 to 1000 nM.

For the compound `O=C(c1ccc(Nc2nc3ccc(I)cc3c3cn[nH]c23)cc1)N1CCCC1` [Example #356, (4-((8-iodo-3H-pyrazolo[3,4-c]quinolin-4-yl)amino)phenyl)(pyrrolidin-1-yl)methanone], on SYK kinase, the Ki was 100 to 1000 nM. The IC50 on LRRK2 is 100 to 1000 nM.

Regarding `CC(=O)N1CCN(c2ccc(Nc3nc4ccc(I)cc4c4cn[nH]c34)cc2)CC1` [Example #357, 1-(4-(4-((8-iodo-3H-pyrazolo[3,4-c]quinolin-4-yl)amino)phenyl)piperazin-1-yl)ethan-1-one], the Ki at SYK kinase was 10 to 100 nM. Moreover, the IC50 at LRRK2 is 100 to 1000 nM.

Consider `COc1ccc2nc(Nc3ccc(F)cc3F)c3n[nH]cc3c2c1` [Example #360, N-(2,4-difluorophenyl)-8-methoxy-2H-pyrazolo[3,4-c]quinolin-4-amine], for which the IC50 on MYLK is < 5000 nM.

Take `COc1ccc(Nc2nc3cccc(F)c3c3cn[nH]c23)cc1OC` [Example #361, N-(3,4-dimethoxyphenyl)-9-fluoro-3H-pyrazolo[3,4-c]quinolin-4-amine]: the Ki at SYK kinase was 100 to 1000 nM. Also, on LRRK2, the IC50 fell in the range of 100 to 1000 nM.

For `CS(=O)(=O)c1cccc(Nc2nc3cccc(F)c3c3cn[nH]c23)c1` [Example #362, 9-fluoro-N-(3-(methylsulfonyl)phenyl)-3H-pyrazolo[3,4-c]quinolin-4-amine], on SYK kinase, the Ki was < 10 nM. In addition, at LRRK2, the IC50 is 100 to 1000 nM.

As for `CN1CCN(C2CCN(c3ccc(Nc4nc5cccc(F)c5c5cn[nH]c45)cc3)CC2)CC1` [Example #363, 9-fluoro-N-(4-(4-(4-methylpiperazin-1-yl)piperidin-1-yl)phenyl)-3H-pyrazolo[3,4-c]quinolin-4-amine], at SYK kinase, the Ki was 10 to 100 nM. Besides, the IC50 at LRRK2 is 10 to 100 nM.
